Measured values taken from the NIST ThermoML archive (doi:10.1021/je100803e).
± gives the expanded uncertainty stated by the source.

Tests used:
[1] = for mass density / viscosity: 298.15 K, 101.3 kPa; for mass density / viscosity / vapor or sublimation pressure: Liquid; for viscosity: Capillary tube (Ostwald / Ubbelohde) method; for vapor or sublimation pressure: Ebulliometric method (Recirculating still); for Normal melting temperature: Crystal
[2] = refractive index (Na D-line) (dimensionless); conditions: 298.15 K; 101.33 kPa; Liquid; Standard Abbe refractometry
[3] = xn = mol fraction of the nth substance listed; conditions: 298.15 K, 101 kPa, Liquid; for viscosity: Capillary tube (Ostwald / Ubbelohde) method
[4] = refractive index (Na D-line) (dimensionless); xn = mol fraction of the nth substance listed; conditions: 298.15 K, 101 kPa, Liquid, Standard Abbe refractometry

CCOC(=O)CCC(=O)OCC [diethyl butanedioate]
Conditions	Normal melting temperature [°C]	mass density [kg/m3]	refractive index	viscosity [mPa·s]
[1]	-21.52 ± 0.62	1035.5 ± 0.1	–	2.393 ± 0.021
[2]	–	–	1.4179 ± 0.0004	–

[1]
Conditions	vapor or sublimation pressure [kPa]
392.46 K	4 ± 1.6
417.39 K	10 ± 1.6
423.15 K	12 ± 1.6
437.53 K	20 ± 1.6
453.15 K	30 ± 1.6
462.1 K	40 ± 1.6
467.78 K	50 ± 1.6

CC(O)CO (centres undefined) [1,2-propanediol]
Conditions	mass density [kg/m3]	refractive index	viscosity [mPa·s]
[1]	1031.6 ± 0.1	–	44.45 ± 0.9
[2]	–	1.4313 ± 0.0004	–

[1]
Conditions	vapor or sublimation pressure [kPa]
378 K	4 ± 0.2
398.24 K	10 ± 0.2
402.54 K	12 ± 0.2
415.13 K	20 ± 0.2
425.72 K	30 ± 0.2
433.59 K	40 ± 0.2
439.9 K	50 ± 0.2
445.2 K	60 ± 0.2
449.79 K	70 ± 0.2
453.84 K	80 ± 0.2
457.48 K	90 ± 0.2
460.79 K	100 ± 0.2

O=C1CCCO1 [γ-butyrolactone]
Conditions	Normal melting temperature [°C]	mass density [kg/m3]	refractive index	viscosity [mPa·s]
[1]	-43.72 ± 0.62	1124.5 ± 0.2	–	1.654 ± 0.014
[2]	–	–	1.435 ± 0.0004	–

[1]
Conditions	vapor or sublimation pressure [kPa]
376.99 K	4 ± 0.2
400.58 K	10 ± 0.2
405.68 K	12 ± 0.2
420.76 K	20 ± 0.2
433.66 K	30 ± 0.2
443.36 K	40 ± 0.2
451.22 K	50 ± 0.2
457.88 K	60 ± 0.2
463.68 K	70 ± 0.2
468.84 K	80 ± 0.2
473.49 K	90 ± 0.2
477.54 K	100 ± 0.2

CCOC(=O)CCC(=O)OCC [diethyl butanedioate] + O=C1CCCO1
Conditions	mass density, [3] [kg/m3]	refractive index, [4]	viscosity, [3] [mPa·s]
x2 = 0	1035.5 ± 0.1	1.4179 ± 0.0004	2.393 ± 0.021
x2 = 0.05	1037.5 ± 0.1	1.4185 ± 0.0004	2.381 ± 0.021
x2 = 0.1	1040 ± 0.1	1.419 ± 0.0004	2.375 ± 0.02
x2 = 0.2	1045.3 ± 0.1	1.4201 ± 0.0004	2.356 ± 0.02
x2 = 0.2999	1051.1 ± 0.1	1.4213 ± 0.0004	2.318 ± 0.02
x2 = 0.4	1057.8 ± 0.1	1.4227 ± 0.0004	2.284 ± 0.02
x2 = 0.5	1065.3 ± 0.1	1.4242 ± 0.0004	2.226 ± 0.019
x2 = 0.6	1073.8 ± 0.1	1.4259 ± 0.0004	2.153 ± 0.018
x2 = 0.7	1083.5 ± 0.2	1.4278 ± 0.0004	2.073 ± 0.018
x2 = 0.8	1094.9 ± 0.2	1.4299 ± 0.0004	1.952 ± 0.017
x2 = 0.9	1108.4 ± 0.2	1.4323 ± 0.0004	1.817 ± 0.015
x2 = 0.95	1116.2 ± 0.2	1.4336 ± 0.0004	1.745 ± 0.015

O [water] + O=C1CCCO1
x1 = 1
Conditions	refractive index	viscosity [mPa·s]
[3]	–	0.8756 ± 0.0075
[4]	1.3325 ± 0.0004	–

O=C1CCCO1 [γ-butyrolactone] + CCOC(=O)CCC(=O)OCC
x1 = 1
Conditions	mass density [kg/m3]	refractive index	viscosity [mPa·s]
[3]	1124.5 ± 0.2	–	1.654 ± 0.014
[4]	–	1.435 ± 0.0004	–

CC1COC(=O)O1 (centres undefined) [4-methyl-1,3-dioxolan-2-one] + CC(O)CO
Conditions	mass density, [3] [kg/m3]	refractive index, [4]	viscosity, [3] [mPa·s]
x2 = 0	1199.4 ± 0.2	1.4198 ± 0.0004	2.39 ± 0.021
x2 = 0.01	–	–	2.534 ± 0.022
x2 = 0.05	1190.9 ± 0.2	1.4199 ± 0.0004	2.436 ± 0.021
x2 = 0.1	1182.4 ± 0.2	1.4199 ± 0.0004	–
x2 = 0.2	1166.4 ± 0.2	1.4207 ± 0.0004	2.921 ± 0.026
x2 = 0.3	1150.2 ± 0.2	1.4213 ± 0.0004	3.55 ± 0.032
x2 = 0.4	1134.2 ± 0.2	1.4223 ± 0.0004	4.758 ± 0.045
x2 = 0.5	1117.9 ± 0.2	1.4235 ± 0.0004	6.071 ± 0.06
x2 = 0.6	1101.6 ± 0.2	1.4249 ± 0.0004	8.461 ± 0.09
x2 = 0.7	1085.1 ± 0.2	1.4264 ± 0.0004	11.82 ± 0.14
x2 = 0.8	1068 ± 0.1	1.4278 ± 0.0004	17.38 ± 0.23
x2 = 0.9	1050.6 ± 0.1	1.4294 ± 0.0004	27.54 ± 0.45
x2 = 0.9499	1041.4 ± 0.1	1.4305 ± 0.0004	35.66 ± 0.65

O=C1CCCO1 [γ-butyrolactone] + O
Conditions	mass density, [3] [kg/m3]	refractive index, [4]	viscosity, [3] [mPa·s]
x2 = 0	1124.5 ± 0.2	1.435 ± 0.0004	1.654 ± 0.014
x2 = 0.05	1123 ± 0.2	1.4337 ± 0.0004	1.621 ± 0.014
x2 = 0.1002	1121.5 ± 0.2	1.4325 ± 0.0004	1.6 ± 0.013
x2 = 0.2	1118.2 ± 0.2	1.4295 ± 0.0004	1.606 ± 0.013
x2 = 0.3	1115.1 ± 0.2	1.4265 ± 0.0004	1.645 ± 0.014
x2 = 0.4	1110.9 ± 0.2	1.4226 ± 0.0004	1.706 ± 0.014
x2 = 0.5	1105.9 ± 0.2	1.4175 ± 0.0004	1.766 ± 0.015
x2 = 0.6	1098.8 ± 0.2	1.4116 ± 0.0004	1.8 ± 0.015
x2 = 0.7	1088.6 ± 0.2	1.4017 ± 0.0004	1.787 ± 0.015
x2 = 0.8	1073.2 ± 0.1	1.3888 ± 0.0004	1.668 ± 0.014
x2 = 0.9	1047.1 ± 0.1	1.3684 ± 0.0004	1.385 ± 0.012
x2 = 0.95	1026.6 ± 0.2	1.3531 ± 0.0004	1.16 ± 0.0098

CC1COC(=O)O1 (centres undefined) [4-methyl-1,3-dioxolan-2-one]
Conditions	mass density [kg/m3]	refractive index	viscosity [mPa·s]
[1]	1199.4 ± 0.2	–	2.39 ± 0.021
[2]	–	1.4198 ± 0.0004	–

[1]
Conditions	vapor or sublimation pressure [kPa]
407.97 K	4 ± 0.7
432.45 K	10 ± 0.7
437.77 K	12 ± 0.7
453.6 K	20 ± 0.7
467.23 K	30 ± 0.7
477.53 K	40 ± 0.7
485.91 K	50 ± 0.7

CC(O)CO (centres undefined) [1,2-propanediol] + CC1COC(=O)O1
x1 = 1
Conditions	mass density [kg/m3]	refractive index	viscosity [mPa·s]
[3]	1031.6 ± 0.1	–	44.45 ± 0.9
[4]	–	1.4313 ± 0.0004	–

O [water]
Conditions	Normal melting temperature [°C]
[1]	-0.10 ± 0.62
